Results reported in publication PMC11546786, “Designing Analogs of SAAP-148 with Enhanced Antimicrobial and Anti-LPS Activities” (International Journal of Molecular Sciences, 2024).
Ends that are not written are not given here.

Assays:
[1] = CD spectra, secondary structure by BeStSel; format: physicochemical; details: 30 μM SDS as printed, 100 μM peptide, 25 °C
Protocol: CD spectra (Figure S1) were acquired using a JASCO J-1500 spectropolarimeter (JASCO Inc., Easton, MD, USA) in 0.1 cm pathlength cells under nitrogen at 25 °C. The spectra were recorded in the range of 190 to 250 nm at a peptide concentration of 100 μM in SDS. Secondary structure was determined using the BeStSel server. Hydropathicity, mean relative hydrophobic moment, and charge of peptides were predicted using the HeliQuest (https://heliquest.ipmc.cnrs.fr/ (accessed on 12 March 2024)). The 3D structure of SAAP-148 and its analogues (Figure S2) was predicted using PEP-FOLD4 servers (https://bioserv.rpbs.univ-paris-diderot.fr/services/PEP-FOLD4/ (accessed on 19 June 2024)).

[2] = test system: human erythrocytes; experiment: Haemolytic activity; format: cell-based
Protocol: The haemolytic activity of the peptides was evaluated using a standard procedure with minor adjustments. Fresh human erythrocytes were washed thrice and subsequently resuspended at 1.25% haematocrit in PBS. Forty microlitres PBS-diluted peptide solution was added to a 96-well plate (Corning Inc., Lowell, MA, USA), and 160 μL of erythrocytes was added. After incubation at 37 °C for 30 min, the samples were centrifuged, and the absorbance of the supernatant was measured at 450 nm using a multi-well microplate reader (SpectraMax M5; Molecular Devices, Sunnyvale, CA, USA) and compared with the 100% haemolysis caused by 0.1% Triton X-100. The percentage of haemolysis was calculated according to the equation: Haemolysis%=Asample−Ablank/Atriton−Ablank×100

[3] = test system: Gram-negative bacteria (E. coli, P. aeruginosa, K. pneumoniae); experiment: Geometric mean of MICs against Gram-negative bacteria; format: cell-based; parameters: unit not given here
Protocol: (§1) The antibacterial activities of the peptides against […] were evaluated using a modified version of the Clinical Laboratory and Standards Institute (CLSI) broth microdilution method, as previously described. Briefly, the bacteria were cultured in liquid LB medium (comprising 10 g/L tryptone, 5 g/L yeast extract, and 10 g/L NaCl) at 37 °C until reaching mid-log phase. Subsequently, the bacterial concentration was adjusted to 1 × 10^6 colony-forming units (CFU)/mL. The peptides were then diluted serially with phosphate-buffered saline (PBS), followed by the addition of 50 μL of the diluted peptides to 50 μL of the bacterial suspension in a 96-well plate (Corning Inc., Lowell, MA, USA). After incubating at 37 °C for 18 to 20 h, the absorbance of each well was measured using a multi-well microplate reader (SpectraMax M5; Molecular Devices, Sunnyvale, CA, USA) at 600 nm.

[4] = test system: human erythrocytes versus five bacterial strains; experiment: Therapeutic index (MHC/GM of MIC); details: for Fold (TI of analogue compared with SAAP-148): TI change relative to SAAP-148; for TI (MHC/MIC): ratio of MHC to geometric mean of MIC (five strains)
Protocol: The geometric mean of minimum inhibitory concentration (MIC) values (GM) from the five strains was calculated to provide a comprehensive assessment of antimicrobial activity, as presented in Table 4.
The therapeutic index (TI) is a widely utilized parameter for indicating the specificity of antimicrobial agents, which is determined by the ratio of MHC (hemolytic activity) and MIC (antimicrobial activity). Consequently, larger TI values signify greater antimicrobial specificity. The TI can be enhanced through one of three mechanisms: increasing antimicrobial activity, reducing hemolytic activity while maintaining antimicrobial activity, or a combination of both augmenting antimicrobial activity and diminishing hemolytic activity.

[5] = Reversed-phase HPLC retention time as measure of peptide hydrophobicity; format: physicochemical; details: retention time by reverse-phase HPLC, reflects hydrophobicity difference between analogues
Description: The physicochemical parameters crucial for the antimicrobial activity of AMPs have been identified, encompassing net charge, helicity, hydrophobicity, and amphipathicity. The hydropathicity, mean relative hydrophobic moment, and charge of peptides were predicted using the HeliQuest (https://heliquest.ipmc.cnrs.fr/ (accessed on 12 March 2024)). Lysine is a hydrophilic amino acid, and its substitution leads to a decrease in the hydrophobicity of the SAAP-148 analogue. The anticipated results are consistent, with the degree of reduction in […] varying depending on the position at which lysine is substituted (Table 2). The amphipathicity of the peptides, as denoted by the μH (mean relative hydrophobic moment), is elaborated on in Table 2. The hydrophobic moment of SAAP-148 analogues was decreased except for SAAP-10, which is on account of the substitution occurring on the18th residue. (Figure 1) The 18th residue of SAAP-148 is glutamine, a polar amino acid residue, located at the junction of the hydrophobic and hydrophilic surfaces of the SAAP-148 α-helix. […] The retention time data determined by reversed-phase high-performance liquid chromatography (RP-HPLC) reflects the hydrophobicity difference between peptide analogues. It is well documented that the formation of a hydrophobic-binding domain due to peptide secondary structure can affect peptide interactions with reversed-phase matrices. This effect was observed particularly for amphipathic α-helical peptides. Given this preferred binding domain, amphipathic α-helical peptides are considerably more retentive than non-amphipathic peptides with the same amino acid composition.
This phenomenon was particularly evident in the case of amphipathic α-helical peptides. […] This discrepancy may be attributed to the lack of a well-defined α-helical structure in SAAP-148 and its analogues (Figure S1).

[6] = test system: Klebsiella pneumonia (1.1736); format: cell-based, Klebsiella pneumoniae
Description: (§2) The LL-37, SAAP-148 and its analogues peptides were synthesized according to the standard Fmoc procedure. The Fmoc-protected resin and monomers are first treated with a basic solvent (piperidine) to remove the amino protecting groups. The carboxyl group of the next amino acid is activated by an activator. The activated monomer reacts with the free amino group to form a peptide bond. These two steps are repeated in a cycle until the synthesis is complete. After synthesis, the peptide is eluted from the column and purified by reverse-phase semipreparative high-performance liquid chromatography as detailed in Table 1. The peptides were dissolved in PBS to create a 1000 μmol/L stock solution for subsequent use. The purity of the synthetic peptide exceeded 95%. Blood samples from healthy donors were obtained from the Fifth Medical Center of Chinese PLA General Hospital (Beijing, China). Human normal lung epithelial cells (BEAS-2B) and mouse mononuclear macrophages cells (RAW 264.7) were sourced from Beyotime Biotechnology (Beijing, China), along with the Enhanced Cell Counting Kit-8 (CCK-8) and nitric oxide detection kit. RPMI-1640 and DMEM were procured from Merck (Darmstadt, Germany), while FBS was obtained from ExCell Bio (Shanghai, China). LPS-B5 (from E. coli 055:B5) was procured from Invivogen (Toulouse, France). Five bacterial strains, including Escherichia coli (1.8732), Pseudomonas aeruginosa (1.2421), Klebsiella pneumonia (1.1736) as Gram-negative bacteria, and Staphylococcus aureus (1.8721) and Staphylococcus epidermidis (1.4260) as Gram-positive bacteria, were procured from the China General Microbiological Culture Collection Centre (CGMCC) (Beijing, China).
as §1

[7] = test system: Staphylococcus aureus (1.8721); format: cell-based
Description: as §2, §1

[8] = test system: Escherichia coli (1.8732); format: cell-based
Description: as §2, §1

[9] = test system: Pseudomonas aeruginosa (1.2421); format: cell-based
Description: as §2, §1

[10] = test system: Staphylococcus epidermidis (1.4260); format: cell-based
Description: as §2, §1

[11] = test system: five bacterial strains; experiment: MICs against all five bacterial strains (geometric mean, range); format: cell-based; parameters: unit not given here; details: geometric mean of MICs against all five bacterial strains
Protocol: as §1

[12] = test system: Gram-positive bacteria (S. aureus, S. epidermidis); experiment: Geometric mean of MICs against Gram-positive bacteria; format: cell-based; parameters: unit not given here
Protocol: as §1

[13] = test system: LPS-induced NO in RAW264.7 macrophages; experiment: Inhibition of LPS-induced NO production, Griess assay; format: cell-based, mouse; details: 6.25 μM peptide, LPS 100 ng/mL, 24 h, Griess assay (Figure 4)
Description: LL-37 is a promising peptide for the regulation of inflammation and mitigation of endotoxin impact due to its ability to directly bind to LPS and counteract its biological effects, such as the inhibition of interleukin-6 (IL-6), interleukin 1β (IL-1β), and LPS-induced nitric oxide (NO). We conducted a series of experiments to assess the effectiveness of SAAP-148 and its analogues in reducing NO production by mouse mononuclear pacrophages cells (RAW264.7) after LPS stimulation. […] Subsequently, we employed a Griess assay to evaluate the levels of nitrite in RAW264.7 cells following treatment with SAAP-148 and its analogues, both with and without LPS treatment.
RAW264.7 cells were cultured in DMEM supplemented with 10% (v/v) FBS, 2 mM L-glutamine, 100 U/mL penicillin, and […] streptomycin, and maintained in a humidified incubator with 5% CO2 at 37 °C. Subsequently, RAW264.7 cells (1.5 × 10^4 cells/well) were seeded in 96-well plates (Corning Inc., Lowell, MA, USA) and incubated overnight. […] After incubation for 24 h, the culture supernatant was collected, and NO assay was performed according the instruction. The absorbance of the sample was measured at 550 nm.

Row | Substance | Others [1] [%] | Turn [1] [%] | α-Helix [1] [%] | β-Antiparallel [1] [%] | β-Parallel [1] [%] | haemolytic activity compared with SAAP-148 [2] | GM to G− [3] | Fold (TI of analogue compared with SAAP-148) [4] | TI (MHC/MIC) [4] | Rt [5] [min] | MIC K. pneumoniae [6] [µM] | MIC S. aureus [7] [µM] | MIC E. coli [8] [µM] | MIC P. aeruginosa [9] [µM] | MIC S. epidermidis [10] [µM] | MIC (GM) [11] | GM to G+ [12] | NO inhibition ability [13]
1 | LKRVWKRVFKLLKRYWRKLKKPVR-NH2 [SAAP-10] | 0 | 0 | 100 | 0 | 0 | comparable hemolytic activity to SAAP-148 | 9.92 | 0.64 | 0.07 | 13.69 | 25.00 | 50.00 | 6.25 | 6.25 | 3.13 | 10.88 | 12.51 | 
2 | LKRVWKRVFKLLKRYWRQLKKPVR-NH2 [SAAP-148] | 0 | 0 | 93.5 | 6.5 | 0 |  | 4.96 |  | 0.11 | 12.416 | 6.25 | 50.00 | 6.25 | 3.13 | 3.13 | 7.18 | 12.51 | comparable efficacy to LL-37
3 | KKRVWKRVFKLLKRYWRQLKKPVR-NH2 [SAAP-1] | 0 | 0 | 93.5 | 6.5 | 0 | comparable hemolytic activity to SAAP-148 | 3.94 | 1.1 | 0.12 | 11.419 | 6.25 | 50.00 | 3.13 | 3.13 | 3.13 | 6.25 | 12.51 | 
4 | LKRKWKRVFKLLKRYWRQLKKPVR-NH2 [SAAP-2] | 0 | 0 | 93.5 | 6.5 | 0 | comparable hemolytic activity to SAAP-148 | 4.97 | 1 | 0.11 | 12.532 | 12.50 | 50.00 | 3.13 | 3.13 | 3.13 | 7.18 | 12.51 | 
5 | LKRVWKRVFKLLKRYWRQLKKKVR-NH2 [SAAP-12] | 0 | 0 | 100 | 0 | 0 | comparable hemolytic activity to SAAP-148 | 25 | 0.36 | 0.04 | 16.604 | 100.00 | 25.00 | 12.50 | 12.50 | 6.25 | 18.95 | 12.5 | 
